{
  "source": "patent US5900434A",
  "about": "“Method for inhibiting the production of interleukin-1 or tumor necrosis factor-α by administering acanthoic acid” (Korea Institute of Science and Technology, priority 1994, dated 1999)",
  "key": {"[1]": {"system": "serum glutamic-oxaloacetic transaminase (sGOT)", "assay": "CCl4-induced hepatocirrhosis in rat, serum GOT", "format": "in vivo, Sprague-Dawley rat", "conditions": "vs CCl4, DMSO and PBS control; 0.2 ml orally twice a week, 13 weeks; FIG. 10", "excerpt": "(§1) Hepatocirrhosis(hepatic sclerosis) is characterized by the fibrosis of whole liver, complete disruption of liver parenchyma by fibrous septa, and formation of regenerative nodules. It is derived mostly from a chronic hepatitis or chronic alcoholism, however, the precise causes thereof are unknown. In a hepatocirrhosis patient, the amount of cytokines, e.g., TNF-α, which is involved in inflammation and fibrosis, is in an increased state; and, therefore, the inhibition of hepatocirrhosis by acanthoic acid may be determined by the inhibitory activity to TNF-α. To induce the experimental hepatocirrhosis in accordance with the method of Nakataukasa, H., et al. as described in J. Clin. Invest., 85, 1833-1843(1990), 1.0 ml/100 g of body weight of CCl4 solution(50% CCl4 +50% corn oil) was injected intraperitoneally to 4 week old male Sprague-Dawley rats twice a week, and 0.2 ml each of methanol extract of A. koreanum Nakai and acanthoic acid was administered orally at the time of the injection of CCl4 twice a week. After 13 weeks from the start of the test, each of the rats was anesthetized with ether and the blood samples were obtained from the heart to determine serum glutamic-oxaloacetic transaminase(sGOT) value and serum glutamic-pyruvic transaminase(sGPT) value(FIG. 10)."}, "rat hepatocirrhosis": {"system": "rat hepatocirrhosis", "assay": "CCl4-induced hepatocirrhosis in rat, liver histology", "format": "in vivo, Sprague-Dawley rat", "conditions": "0.2 ml orally twice a week, 13 weeks, FIG. 11, E = CCl4 + methanol extract, F = CCl4 + acanthoic acid", "excerpt": "as §1, with “10). […]” for “10).”"}, "[2]": {"system": "human monocytes and macrophages", "assay": "Cytotoxicity on human monocytes and macrophages (MTT)", "format": "cell-based", "conditions": "concentration lower than 10 μg/ml", "procedure": "Normal human peripheral blood was heparin-treated and diluted with equal amount of Hank's balanced salt solution (HBSS: Ca^2+ and Mg^2+ free). The diluted blood was put into a centrifuge tube containing therein Ficoll-Hypaque(Sigma, St. Louis, Mo., U.S.A.) layer having a density of 1.077 piled up on Ficoll-Hypaque layer having a density of 1.119, and then centrifuged at 700×g for 30 minutes to obtain monocytes from the layer between Ficoll-Hypaque layer having a density of 1.077 and serum layer, and neutrophils from the layer between Ficoll-Hypaque layer having a density of 1.077 and that having a density of 1.119. The separated cells were washed twice with 4° C. HBSS(Ca^2+ and Mg^2+ free) and suspended in RPMI 1640 medium(Gibco, Grand Island, N.Y., U.S.A.) containing 10% fetal bovine serum(FBS, Hyclone, Logan, Utah, U.S.A.). The suspensions were added to the wells of 24-well incubation plate(Costar, Cambridge, Mass., U.S.A.) and incubated at 37° C. for 2 hours to obtain monocytes, macrophages and neutrophils. […] The cytotoxicity of acanthoic acid was determined by the following procedures. […] 100 μl each of acidified isopropanol(0.04N HCl in isopropanol) was added to the cells in each well to elute formazan produced by the living cells, and optical density (O.D.) was determined at 540 nm by using an ELISA reader (Titertek multiskan Mcc/340)(FIG. 1). […]"}, "leukocyte migration": {"system": "leukocyte migration", "conditions": "cited from earlier work"}},
  "data": [
    {"smiles": "C=C[C@@]1(C)CC=C2C(CCC3[C@](C)(C(=O)O)CCC[C@@]23C)C1", "note": "(single isomer, unassigned; (-)) [acanthoic acid, (-)-pimara-9(11),15-diene-19-oic acid]", "values": [
      {"measurement": "decrease of sGOT value", "setting": "[1]", "result": 30, "unit": "%"},
      {"measurement": "liver histology, effect on hepatocirrhosis", "setting": "rat hepatocirrhosis", "result": "the inhibitory effect on the hepatocirrhosis is lower than that of E"},
      {"measurement": "cytotoxicity", "setting": "[2]", "result": "no cytotoxicity"},
      {"measurement": "inhibition of leukocyte migration", "setting": "leukocyte migration", "result": "inhibit the leukocyte migration"}
    ]}
  ]
}
